Common to all, as to type: cell-based
The test system of test [1] is T-Rex 293 cell line SC3 cells lacking increased expression of androgen receptor protein. The experiment in a line: Cellular growth inhibition, T-Rex 293 SC3 cells without doxycycline. Conditions: not exposed to doxycycline, 72 hours, CellTiter-Glo 2.0. On the procedure:
(§1) The following types of cells were prepared for this experiment: (i) a T-Rex 293 cell line having increased expression of androgen receptor protein due to exposure to doxycycline and (ii) a T-Rex 293 cell line lacking increased expression of androgen receptor protein. Ability of the test compounds to inhibit proliferation of the foregoing cell types was evaluated according to the procedures set forth below.
(§2) The doxycycline-inducible androgen receptor protein expressing cell line was established using the following protocol: T-Rex 293 cells were purchased from Invitrogen (Cat #R71007) and transfected using Lipofectamine 2000 with the wild-type androgen receptor protein sequence cloned into the pcDNA4/TO vector. Transfected cells were selected using 400 μg/mL Zeocin (Invitrogen Cat #R25001). Following selection, single clones were raised and maintained in Dulbecco's Modified Eagle Medium (DMEM) supplemented with 10% w/w Tetracycline-free fetal bovine serum (FBS) and 250 μg/mL Zeocin. Clones were analyzed for expression of androgen receptor protein in the presence and absence of 10 ng/mL doxycycline (Sigma Cat #D9891), and a single doxycycline-inducible clone (hereinafter “SC3”) was selected for use in downstream assays.
(§3) The SC3 cells were seeded on poly-D-lysine coated, black clear-bottom 384-well plates at 2500/well, in 25 μL Phenol Red Free Dulbecco's Modified Eagle Medium (DMEM) supplemented with 10% w/w charcoal-dextran treated fetal bovine serum (FBS) and 1% w/w pen-strep, with or without 10 ng/mL doxycycline. Pen-Strep is a commercially available mixture of penicillin G and streptomycin, which is used in mammalian cell culture media to prevent bacterial contamination. Phenol Red Free Dulbecco's Modified Eagle Medium (DMEM) supplemented with 10% w/w charcoal-dextran treated fetal bovine serum (FBS) and 1% w/w pen-strep, with or without 10 ng/mL doxycycline is herein referred to as Treatment Medium. Following seeding of cells in the plates, the plates were spun at 300×g for 30 seconds, then equilibrated to room temperature for 30 minutes, and then deposited in a humidified tissue culture incubator maintained at 37° C. with 5% CO2.
(§4) At 24 hours after seeding of the cells, dilutions of test compound were prepared in DMSO and dissolved in Treatment Medium, to achieve a final DMSO concentration of 0.5% w/w, thereby providing the Test Compound Solution. A 25 μL aliquot of the Test Compound Solution was added to cells in the well plates. An equal volume of a solution containing DMSO and Treatment Medium was used as a negative control. Following treatment of cells with Test Compound Solution or said equal volume of a solution containing DMSO and Treatment Medium, the plates were spun at 300×g for 30 seconds, and then left in an incubator for 72 hours.
(§5) At the end of the treatment duration, cell viability was quantified with CellTiter-Glo 2.0 reagent (Promega Cat #G9243). For this purpose, plates were equilibrated to room temperature for 30 minutes, and then 25 μL of CellTiter-Glo 2.0 reagent was added to cells in the plate wells. Plates were then agitated on a shaker for two minutes at 500 rpm and subsequently incubated at room temperature for 10 minutes. Following incubation, the plates were spun at 3000×g for 30 seconds, then sealed with an optical adhesive cover, and luminescence readings were measured with an EnVision Plate Reader.
(§6) Data was normalized using zero luminescence for baseline. A four-parameter non-linear regression curve fit was applied to dose-response data in GraphPad Prism data analysis software to determine the half-maximal growth inhibitory concentration (GI50) for each test compound.

For another test, the system named is VCaP cells. Briefly: Cellular growth inhibition assay for VCaP cells. Conditions: Homo sapiens, 72 hours, CellTiter-Glo 2.0. On the procedure:
VCaP cells were purchased from American Type Cell Culture (ATCC Cat #CRL2876) and then seeded on poly-D-lysine coated, black clear-bottom 384-well plates at 5000/well in 25 μL Dulbecco's Modified Eagle Medium (DMEM) supplemented with 10% w/w Fetal bovine serum (FBS) and 1% w/w Pen-Strep. Pen-Strep is a commercially available mixture of penicillin G and streptomycin, which is used in mammalian cell culture media to prevent bacterial contamination. Dulbecco's Modified Eagle Medium (DMEM) supplemented with 10% w/w fetal bovine serum (FBS) and 1% w/w Pen-Strep is herein referred to as Treatment Medium. Following seeding of cells in the plates, the plates were spun at 300×g for 30 seconds, then equilibrated to room temperature for 30 minutes, and then deposited in a humidified tissue culture incubator maintained at 37° C. with 5% CO2.
as §4
as §5, with “Reader. Data was normalized using zero luminescence for baseline.” for “Reader.”
A four-parameter non-linear regression curve fit was applied to dose-response data in GraphPad Prism data analysis software to determine the half-maximal growth inhibitory concentration (GI50) for each test compound.

A further test concerns T47D cells. The experiment in a line: Cellular growth inhibition assay for T47D cells. Conditions: Homo sapiens, 72 hours, CellTiter-Glo 2.0. The method, then: T47D cells were purchased from American Type Cell Culture (ATCC Cat #HTB-133) and then seeded on poly-D-lysine coated, black clear-bottom 384-well plates at 3000/well in 25 μL Dulbecco's Modified Eagle Medium (DMEM) supplemented with 10% w/w Fetal bovine serum (FBS), 0.2 units/mL recombinant human insulin (Gibco Cat #12585014), and 1% w/w Pen-Strep. Pen-Strep is a commercially available mixture of penicillin G and streptomycin, which is used in mammalian cell culture media to prevent bacterial contamination. Dulbecco's Modified Eagle Medium (DMEM) supplemented with 10% w/w fetal bovine serum (FBS), 0.2 units/mL recombinant human insulin, and 1% w/w Pen-Strep is herein referred to as Treatment Medium. Following seeding of cells in the plates, the plates were spun at 300×g for 30 seconds, then equilibrated to room temperature for 30 minutes, and then deposited in a humidified tissue culture incubator maintained at 37° C. with 5% CO2.
as §4
as §5, with “Reader (Perkin Elmer).” for “Reader.”
as §6

For test [2], the system named is T-Rex 293 cell line SC3 cells having increased expression of androgen receptor protein. The experiment in a line: Cellular growth inhibition, T-Rex 293 SC3 cells with doxycycline (increased androgen receptor expression). Conditions: with 10 ng/mL doxycycline (increased androgen receptor), 72 hours, CellTiter-Glo 2.0. The method, then:
as §1, §2, §3, §4, §5, §6

A value given as a limit tells only on which side of the number the result lay.

As to `CCc1cnn2c(NCc3ccc(N(C)CCOC4CCN(C5CN(c6ncc(C(=O)N[C@H]7C(C)(C)[C@H](Oc8ccc(C#N)c(Cl)c8)C7(C)C)cn6)C5)CC4)nc3)cc(N3CCCC[C@H]3CCO)nc12` [Compound I-85], the GI50 in test [1] was 100 to 1000 nM; in the test with VCaP cells it was 100 to 1000 nM; in the test on T47D cells it was under 500 nM; in test [2], 100 to 1000 nM.

On to `CCc1cnn2c(NCc3ccc(OCCN4CCN(CC5CCN(c6ncc(C(=O)N[C@H]7C(C)(C)[C@H](Oc8ccc(C#N)c(Cl)c8)C7(C)C)cn6)CC5)CC4)nc3)cc(N3CCCCC3)nc12` [Compound I-48], for which the GI50 in test [1] is over 3500 nM; in the test on VCaP cells, over 3500 nM; with T47D cells, 1500 to 3000 nM; in test [2], 100 to 1000 nM.

As for `CCc1cnn2c(NCc3ccc(N4CC(N5CCC(C6CCN(c7ncc(C(=O)N[C@H]8C(C)(C)[C@H](Oc9ccc(C#N)c(Cl)c9)C8(C)C)cn7)CC6)CC5)C4)nc3)cc(N3CCCC[C@H]3CCO)nc12` [Compound I-66], the GI50 in test [1] is over 3500 nM; in the test on VCaP cells it was 100 to 1000 nM; in the test with T47D cells, 1500 to 3000 nM; in test [2] it was under 100 nM.

For `CC1(C)[C@H](NC(=O)c2cnc(N3CCC(OCCOCCOCCN4C/C=C/CCOc5cccc(c5)-c5ccnc(n5)Nc5cccc(c5)C4)CC3)nc2)C(C)(C)[C@H]1Oc1ccc(C#N)c(Cl)c1` [Compound I-89], the GI50 is over 3500 nM in test [1], over 3500 nM in the test with VCaP cells, over 3000 nM in the test with T47D cells and 100 to 1000 nM in test [2].

Regarding `CCc1cnn2c(NCc3ccc(N4CCC(OCCC5CCN(c6ncc(C(=O)N[C@H]7C(C)(C)[C@H](Oc8ccc(C#N)c(Cl)c8)C7(C)C)cn6)CC5)C4)nc3)cc(N3CCCC[C@H]3CCO)nc12` (stereo partly drawn) [Compound I-80], the GI50 in test [1] was over 3500 nM; in the test on VCaP cells, 100 to 1000 nM; with T47D cells, 500 to 1500 nM; in test [2], under 100 nM.

As for `CC(C)n1cc(-c2ccnc3[nH]c(C4CCN(CCOCCOCCOC5CCN(c6ncc(C(=O)N[C@H]7C(C)(C)[C@H](Oc8ccc(C#N)c(Cl)c8)C7(C)C)cn6)CC5)CC4)cc23)ccc1=O` [Compound I-77], the GI50 in test [1] lay within 100 to 1000 nM; with VCaP cells, 100 to 1000 nM; in the test on T47D cells, 500 to 1500 nM; in test [2], 100 to 1000 nM.

For `CCc1cnn2c(NCc3ccc(OCCCCN4CCN(CC5CCN(c6ncc(C(=O)N[C@H]7C(C)(C)[C@H](Oc8ccc(C#N)c(Cl)c8)C7(C)C)cn6)CC5)CC4)nc3)cc(N3CCCC(F)(F)C3)nc12` [Compound I-93], the GI50 in test [1] was over 3500 nM; in the test with VCaP cells, over 3500 nM; with T47D cells, 500 to 1500 nM; in test [2] it was 100 to 1000 nM.

As for `CCc1cnn2c(NCc3ccc(OCCC4CCN(CC5CCN(c6ncc(C(=O)N[C@H]7C(C)(C)[C@H](Oc8ccc(C#N)c(Cl)c8)C7(C)C)cn6)CC5)CC4)nc3)cc(N3CCCC[C@H]3CCO)nc12` [Compound I-52], the GI50 was 100 to 1000 nM in test [1], under 100 nM with VCaP cells, under 500 nM with T47D cells and under 100 nM in test [2].

Take `CCc1cnn2c(NCc3ccc(OCCCN4CCN(CC5CCN(c6ncc(C(=O)N[C@H]7C(C)(C)[C@H](Oc8ccc(C#N)c(Cl)c8)C7(C)C)cn6)CC5)CC4)nc3)cc(-c3ccccc3)nc12` [Compound I-49]: the GI50 is over 3500 nM in test [1], over 3500 nM in the test on VCaP cells, 1500 to 3000 nM in the test on T47D cells and 100 to 1000 nM in test [2].

Source of the values: US20260159520A1, “HETEROBIFUNCTIONAL COMPOUNDS AND METHODS OF TREATING DISEASE” (Halda Therapeutics OpCo, Inc., priority 2022, published 2026).
